For series [1] the following is noted: Liquid; for mass density: 101.33 kPa.
Series [2] is described as follows: refractive index (Na D-line) (dimensionless). Conditions: 101.33 kPa, Liquid.

± gives the expanded uncertainty stated by the source.

Take `ClC(Cl)=C(Cl)Cl` [tetrachloroethene]: the mass density in series [1] (293.15 K) stood at 1625 ± 3.7 kg/m3. Besides, the “vapor or sublimation pressure” value in series [1] (392.05 K) was determined as 95.23 ± 5 kPa. Besides, the refractive index in series [2] (293.15 K) was determined as 1.505 ± 0.005.
For `Cc1ccccc1C` [1,2-dimethylbenzene], in series [1] (293.15 K), the mass density stood at 880.1 ± 1.9 kg/m3. Further, the “vapor or sublimation pressure” value in series [1] (415.35 K) came to 95.23 ± 5 kPa.
As for `Cc1cccc(C)c1` [1,3-dimethylbenzene], the mass density in series [1] (293.15 K) is reported as 864.4 ± 1.7 kg/m3. In series [1] (410.15 K), the “vapor or sublimation pressure” value came to 95.23 ± 5 kPa. Further, in series [2] (293.15 K), the refractive index was found to be 1.4972 ± 0.005.
As for `ClC=C(Cl)Cl` [trichloroethene], the mass density in series [1] (298.15 K) amounted to 1464 ± 3.3 kg/m3. In series [1] (358.35 K), the “vapor or sublimation pressure” value worked out at 95.23 ± 5 kPa. In addition, in series [2] (298.15 K), the refractive index worked out at 1.4782 ± 0.005.
Turning to `Cc1ccc(O)cc1` [4-methylphenol], the “vapor or sublimation pressure” value in series [1] (472.85 K) was determined as 95.23 ± 5 kPa. In addition, the refractive index in series [2] (298.15 K) stood at 1.5391 ± 0.005.
For the compound `ClC(Cl)C(Cl)Cl` [1,1,2,2-tetrachloroethane], the mass density in series [1] (293.15 K) is listed as 1593 ± 3.6 kg/m3. In addition, in series [1] (417.15 K), the “vapor or sublimation pressure” value amounted to 95.23 ± 5 kPa. The refractive index in series [2] (293.15 K) was determined as 1.494 ± 0.005.
As for `ClCCCl` [1,2-dichloroethane], the mass density in series [1] (293.15 K) stood at 1252.9 ± 2.7 kg/m3. The “vapor or sublimation pressure” value in series [1] (355.05 K) is on record as 95.23 ± 5 kPa. Besides, the refractive index in series [2] (293.15 K) was 1.4196 ± 0.005.
As for `Cc1ccc(C)cc1` [1,4-dimethylbenzene], the mass density in series [1] (293.15 K) was 861 ± 1.7 kg/m3. In series [1] (409.15 K), the “vapor or sublimation pressure” value worked out at 95.23 ± 5 kPa. Besides, in series [2] (293.15 K), the refractive index worked out at 1.4858 ± 0.005.

These data come from the NIST ThermoML archive (doi:10.1016/j.jct.2006.12.017).
